Measured values: PMC9286316, “Importance of the Cyclic Cystine Knot Structural Motif for Immunosuppressive Effects of Cyclotides” (ACS Chemical Biology, 2021)

Test system: human PBMCs
Experiment: Lymphocyte proliferation assay (CFSE, anti-CD3/anti-CD28 stimulated PBMC, flow cytometry)
Format: cell-based
Settings: 72 h; for antiproliferative activity (Figure 2B): tested concentration range 1–100 μg/mL peptide, three biological replicates
Description: Blood of healthy donors was obtained from the Blood Transfusion Centre (University Medical Centre Freiburg, Freiburg Germany), and all experiments conducted on human material were approved by the ethics committee of the University Freiburg (55/14). Venous blood was centrifuged to isolate peripheral blood mononuclear cells on a LymphoPrep gradient (density: 1.077 g/cm^3, 20 min, 500 × g, 20 °C; Progen, Heidelberg, Germany). PBMCs were collected and washed twice with phosphate buffer saline (PBS; GE Healthcare, München), and cell viability and concentration were determined using the trypan blue exclusion test. Cells were cultured in RPMI 1640 medium supplemented with 10% heat-inactivated fetal calf serum, 2 mM L-glutamine, 100 U/mL penicillin, and […] streptomycin (all from Life Technologies, Paisley, UK) and cultured at 37 °C in a humidified incubator with a 5% CO2/95% air atmosphere.
Harvested PBMC were washed twice in cold PBS and resuspended in PBS at a concentration of 5 × 10^6 cells per mL. Carboxyfluorescein diacetate succinimidyl ester (CFSE; 5 μM; Sigma-Aldrich, St. Louis, MO) staining was performed to determine T-cell proliferation. Cells were stained with CFSE and incubated for 10 min at 37 °C. The staining reaction was stopped by washing twice with complete growth medium. Afterward, stained cells were stimulated with anti-human CD3 (clone OKT3) and anti-human CD28 (clone 28.6) mAbs (each 100 ng/mL; both from eBioscience, Frankfurt, Germany) treated as indicated in the figure legends, with medium alone, cyclosporine A (CsA; 5 μg/mL, purity ≥99%, Sandimmun 50 mg/mL, Novartis Pharma, Basel, Switzerland), camptothecin (CPT; 300 μM; purity >98%; Tocris, Bristol, UK), or in the presence of the indicated concentrations of peptides for 72 h at 37 °C in a humidified incubator with a 5% CO2/95% air atmosphere. Cell division progress was analyzed by flow cytometric analysis using a FACS Calibur analyzer (BD Bioscience, Becton Dickinson, Franklin Lakes, NJ). Data were generated using FlowJo software. For further analysis of FACS raw data Microsoft Excel and SPSS software (IBM, Version 22.0, Armonk, USA) were applied. All bioactivity data are represented as mean ± standard deviation (SD) for the indicated number of independent experiments. Statistical significance was determined by a one-way ANOVA followed by Dunnett’s post hoc pairwise comparisons. The asterisks (*p < 0.05, **p < 0.01, ***p < 0.001) represent significant differences from the respective control.

Compound	antiproliferative activity (Figure 2B)	antiproliferative activity (Figure 1D) (tested concentration range up to 10 μM (∼29 μg/mL), mean ± SD of three biological replicates relative to stimulated control)
CC(C)C[C@@H]1NC(=O)CNC(=O)[C@H](CC(N)=O)NC(=O)[C@H](CCCNC(=N)N)NC(=O)[C@H]([C@@H](C)O)NC(=O)[C@H](CSCC(N)=O)NC(=O)[C@H](C(C)C)NC(=O)[C@@H]2CCCN2C(=O)[C@H](Cc2c[nH]c3ccccc23)NC(=O)[C@H](CO)NC(=O)[C@H](CSCC(N)=O)NC(=O)[C@H](CCCCN)NC(=O)[C@H](CSCC(N)=O)NC(=O)CNC(=O)[C@@H]2CCCN2C(=O)[C@H]([C@@H](C)O)NC(=O)[C@H](CC(N)=O)NC(=O)[C@H](CSCC(N)=O)NC(=O)[C@H]([C@@H](C)O)NC(=O)CNC(=O)CNC(=O)[C@H](C(C)C)NC(=O)[C@H](CSCC(N)=O)NC(=O)[C@H]([C@@H](C)O)NC(=O)[C@H](CCC(=O)O)NC(=O)CNC(=O)[C@H](CSCC(N)=O)NC(=O)[C@H](C(C)C)NC(=O)[C@@H]2CCCN2C1=O [T20K-Acm]	total loss of antiproliferative activity	–
CCN1C(=O)CC(SC[C@@H]2NC(=O)CNC(=O)[C@@H]3CCCN3C(=O)[C@H]([C@@H](C)O)NC(=O)[C@H](CC(N)=O)NC(=O)[C@H](CSC3CC(=O)N(CC)C3=O)NC(=O)[C@H]([C@@H](C)O)NC(=O)CNC(=O)CNC(=O)[C@H](C(C)C)NC(=O)[C@H](CSC3CC(=O)N(CC)C3=O)NC(=O)[C@H]([C@@H](C)O)NC(=O)[C@H](CCC(=O)O)NC(=O)CNC(=O)[C@H](CSC3CC(=O)N(CC)C3=O)NC(=O)[C@H](C(C)C)NC(=O)[C@@H]3CCCN3C(=O)[C@H](CC(C)C)NC(=O)CNC(=O)[C@H](CC(N)=O)NC(=O)[C@H](CCCNC(=N)N)NC(=O)[C@H]([C@@H](C)O)NC(=O)[C@H](CSC3CC(=O)N(CC)C3=O)NC(=O)[C@H](C(C)C)NC(=O)[C@@H]3CCCN3C(=O)[C@H](Cc3c[nH]c4ccccc34)NC(=O)[C@H](CO)NC(=O)[C@H](CSC3CC(=O)N(CC)C3=O)NC(=O)[C@H](CCCCN)NC2=O)C1=O (stereo partly shown) [T20K-Nem]	total loss of antiproliferative activity	–
CSSC[C@@H]1NC(=O)CNC(=O)[C@@H]2CCCN2C(=O)[C@H]([C@@H](C)O)NC(=O)[C@H](CC(N)=O)NC(=O)[C@H](CSSC)NC(=O)[C@H]([C@@H](C)O)NC(=O)CNC(=O)CNC(=O)[C@H](C(C)C)NC(=O)[C@H](CSSC)NC(=O)[C@H]([C@@H](C)O)NC(=O)[C@H](CCC(=O)O)NC(=O)CNC(=O)[C@H](CSSC)NC(=O)[C@H](C(C)C)NC(=O)[C@@H]2CCCN2C(=O)[C@H](CC(C)C)NC(=O)CNC(=O)[C@H](CC(N)=O)NC(=O)[C@H](CCCNC(=N)N)NC(=O)[C@H]([C@@H](C)O)NC(=O)[C@H](CSSC)NC(=O)[C@H](C(C)C)NC(=O)[C@@H]2CCCN2C(=O)[C@H](Cc2c[nH]c3ccccc23)NC(=O)[C@H](CO)NC(=O)[C@H](CSSC)NC(=O)[C@H](CCCCN)NC1=O [T20K-S-methyl]	total loss of antiproliferative activity	–
GLPVCGETCVGGTCNTPGCKCSWPVCTR↓N (head to tail) [cyclic reduced T20K]	–	lost activity
